According to paper PMC8632988, “Inhibition of SYK and cSrc kinases can protect bone and cartilage in preclinical models of osteoarthritis and rheumatoid arthritis” (Scientific Reports, 2021):

Experiments:
Experiment in all cases: Kinase selectivity profile assay
Assay type in all cases: biochemical
AKT1 = target: T1, AKT1 (Homo sapiens, UniProt P31749); conditions: 500 nM; relative to DMSO; read-out: Residual enzymatic activity
T1 construct: purchased Reaction Biology Corporation
Method in brief: (§1)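 Radiometric kinase assay run by a standard protocol. Unbound phosphate was removed by washing filters in phosphoric acid, and product radioactivity gave percent remaining kinase activity versus DMSO vehicle reactions. Run in duplicate.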

AKT2 = target: T2, AKT2 (Homo sapiens, UniProt P31751); conditions: 500 nM; relative to DMSO; read-out: Residual enzymatic activity
T2 construct: purchased Reaction Biology Corporation
Method in brief: as §1

AKT3 = target: T3, AKT3 (Homo sapiens, UniProt Q9Y243); conditions: 500 nM; relative to DMSO; read-out: Residual enzymatic activity
T3 construct: purchased Reaction Biology Corporation
Method in brief: as §1

ALK2/ACVR1 = target: T4, ALK2/ACVR1 (Homo sapiens, UniProt Q04771); conditions: 500 nM; relative to DMSO; read-out: Residual enzymatic activity
T4 construct: purchased Reaction Biology Corporation
T4 sequence (Q04771 21-509): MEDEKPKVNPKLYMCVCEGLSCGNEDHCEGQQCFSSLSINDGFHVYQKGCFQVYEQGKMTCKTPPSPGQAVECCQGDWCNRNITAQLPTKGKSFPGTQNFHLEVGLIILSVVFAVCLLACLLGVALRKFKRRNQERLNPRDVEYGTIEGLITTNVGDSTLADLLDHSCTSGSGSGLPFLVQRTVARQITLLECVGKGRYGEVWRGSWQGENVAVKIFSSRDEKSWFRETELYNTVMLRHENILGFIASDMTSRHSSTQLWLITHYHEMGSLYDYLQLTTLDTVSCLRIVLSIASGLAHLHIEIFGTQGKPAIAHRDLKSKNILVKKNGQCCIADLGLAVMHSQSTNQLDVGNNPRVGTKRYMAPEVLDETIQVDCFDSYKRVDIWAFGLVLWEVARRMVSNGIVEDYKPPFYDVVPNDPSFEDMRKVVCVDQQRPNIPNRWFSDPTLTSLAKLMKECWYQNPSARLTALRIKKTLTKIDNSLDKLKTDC
Method in brief: as §1

BRAF = target: T5, BRAF (Homo sapiens, UniProt P15056); conditions: 500 nM; relative to DMSO; read-out: Residual enzymatic activity
T5 construct: purchased Reaction Biology Corporation
T5 sequence (P15056 whole entry): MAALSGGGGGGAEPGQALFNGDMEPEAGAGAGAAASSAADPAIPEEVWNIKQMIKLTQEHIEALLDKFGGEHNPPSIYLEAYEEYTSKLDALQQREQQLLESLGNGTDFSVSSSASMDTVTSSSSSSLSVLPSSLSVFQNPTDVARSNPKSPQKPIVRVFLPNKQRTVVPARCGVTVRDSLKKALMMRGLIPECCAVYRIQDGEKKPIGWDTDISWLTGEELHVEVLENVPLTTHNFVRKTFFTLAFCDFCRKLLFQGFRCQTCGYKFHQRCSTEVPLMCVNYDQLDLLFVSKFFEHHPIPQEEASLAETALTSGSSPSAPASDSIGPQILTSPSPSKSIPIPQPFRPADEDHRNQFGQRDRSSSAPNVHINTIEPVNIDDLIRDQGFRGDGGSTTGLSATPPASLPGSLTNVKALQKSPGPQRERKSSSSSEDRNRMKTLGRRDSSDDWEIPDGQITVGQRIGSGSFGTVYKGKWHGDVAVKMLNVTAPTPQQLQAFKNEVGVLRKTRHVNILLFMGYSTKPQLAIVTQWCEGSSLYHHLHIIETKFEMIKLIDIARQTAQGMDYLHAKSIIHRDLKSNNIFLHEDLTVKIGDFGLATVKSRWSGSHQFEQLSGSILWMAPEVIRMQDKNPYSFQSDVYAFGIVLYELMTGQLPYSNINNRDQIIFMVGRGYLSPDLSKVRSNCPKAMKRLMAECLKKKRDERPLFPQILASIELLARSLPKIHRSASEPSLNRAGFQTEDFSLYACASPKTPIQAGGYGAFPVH
Method in brief: as §1

CAMK4 = target: T6, CAMK4 (Homo sapiens, UniProt Q16566); conditions: 500 nM; relative to DMSO; read-out: Residual enzymatic activity
T6 construct: purchased Reaction Biology Corporation
Method in brief: as §1

CDK1/cyclin A = target: T7, CDK1/cyclin A (Homo sapiens, UniProt P06493); conditions: 500 nM; relative to DMSO; read-out: Residual enzymatic activity
T7 construct: purchased Reaction Biology Corporation
Method in brief: as §1

COT1/MAP3K8 = target: T8, COT1/MAP3K8 (Homo sapiens, UniProt P41279); conditions: 500 nM; relative to DMSO; read-out: Residual enzymatic activity
T8 construct: purchased Reaction Biology Corporation
Method in brief: as §1

CTK/MATK = target: T9, CTK/MATK (Homo sapiens, UniProt P42679); conditions: 500 nM; relative to DMSO; read-out: Residual enzymatic activity
T9 construct: purchased Reaction Biology Corporation
Method in brief: as §1

EPHA1 = target: T10, EPHA1 (Homo sapiens, UniProt P21709); conditions: for remaining activity at 0.5 µM: 500 nM, relative to DMSO, read-out: Residual enzymatic activity
T10 construct: purchased Reaction Biology Corporation (assay service)
T10 sequence (P21709 26-976): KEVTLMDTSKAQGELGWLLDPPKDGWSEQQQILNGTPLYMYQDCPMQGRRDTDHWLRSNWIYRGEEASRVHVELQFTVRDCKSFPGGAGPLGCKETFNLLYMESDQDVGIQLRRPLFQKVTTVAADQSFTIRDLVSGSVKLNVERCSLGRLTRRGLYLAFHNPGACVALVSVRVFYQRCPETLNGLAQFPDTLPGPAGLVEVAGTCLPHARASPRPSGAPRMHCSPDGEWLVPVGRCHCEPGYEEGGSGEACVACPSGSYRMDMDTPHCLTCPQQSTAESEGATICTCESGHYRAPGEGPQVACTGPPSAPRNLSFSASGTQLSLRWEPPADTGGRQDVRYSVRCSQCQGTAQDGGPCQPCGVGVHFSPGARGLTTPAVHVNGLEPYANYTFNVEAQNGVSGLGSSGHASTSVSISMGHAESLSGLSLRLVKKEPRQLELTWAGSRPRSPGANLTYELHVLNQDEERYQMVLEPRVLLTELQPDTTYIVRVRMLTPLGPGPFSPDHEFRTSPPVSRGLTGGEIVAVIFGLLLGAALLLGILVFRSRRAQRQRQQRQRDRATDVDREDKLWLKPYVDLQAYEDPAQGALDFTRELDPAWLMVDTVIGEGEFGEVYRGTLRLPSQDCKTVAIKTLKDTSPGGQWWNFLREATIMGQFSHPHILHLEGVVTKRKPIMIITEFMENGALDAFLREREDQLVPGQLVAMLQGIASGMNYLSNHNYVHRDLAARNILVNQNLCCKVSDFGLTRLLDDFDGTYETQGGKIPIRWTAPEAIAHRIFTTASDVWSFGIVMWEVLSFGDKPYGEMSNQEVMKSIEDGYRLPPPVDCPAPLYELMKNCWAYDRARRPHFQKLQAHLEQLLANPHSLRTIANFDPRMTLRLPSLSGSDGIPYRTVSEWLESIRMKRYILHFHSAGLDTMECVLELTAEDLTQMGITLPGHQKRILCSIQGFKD
Method in brief: as §1

EPHB3 = target: T11, EPHB3 (Homo sapiens, UniProt P54753); conditions: 500 nM, relative to DMSO
T11 construct: purchased Reaction Biology Corporation
T11 sequence (P54753 34-998): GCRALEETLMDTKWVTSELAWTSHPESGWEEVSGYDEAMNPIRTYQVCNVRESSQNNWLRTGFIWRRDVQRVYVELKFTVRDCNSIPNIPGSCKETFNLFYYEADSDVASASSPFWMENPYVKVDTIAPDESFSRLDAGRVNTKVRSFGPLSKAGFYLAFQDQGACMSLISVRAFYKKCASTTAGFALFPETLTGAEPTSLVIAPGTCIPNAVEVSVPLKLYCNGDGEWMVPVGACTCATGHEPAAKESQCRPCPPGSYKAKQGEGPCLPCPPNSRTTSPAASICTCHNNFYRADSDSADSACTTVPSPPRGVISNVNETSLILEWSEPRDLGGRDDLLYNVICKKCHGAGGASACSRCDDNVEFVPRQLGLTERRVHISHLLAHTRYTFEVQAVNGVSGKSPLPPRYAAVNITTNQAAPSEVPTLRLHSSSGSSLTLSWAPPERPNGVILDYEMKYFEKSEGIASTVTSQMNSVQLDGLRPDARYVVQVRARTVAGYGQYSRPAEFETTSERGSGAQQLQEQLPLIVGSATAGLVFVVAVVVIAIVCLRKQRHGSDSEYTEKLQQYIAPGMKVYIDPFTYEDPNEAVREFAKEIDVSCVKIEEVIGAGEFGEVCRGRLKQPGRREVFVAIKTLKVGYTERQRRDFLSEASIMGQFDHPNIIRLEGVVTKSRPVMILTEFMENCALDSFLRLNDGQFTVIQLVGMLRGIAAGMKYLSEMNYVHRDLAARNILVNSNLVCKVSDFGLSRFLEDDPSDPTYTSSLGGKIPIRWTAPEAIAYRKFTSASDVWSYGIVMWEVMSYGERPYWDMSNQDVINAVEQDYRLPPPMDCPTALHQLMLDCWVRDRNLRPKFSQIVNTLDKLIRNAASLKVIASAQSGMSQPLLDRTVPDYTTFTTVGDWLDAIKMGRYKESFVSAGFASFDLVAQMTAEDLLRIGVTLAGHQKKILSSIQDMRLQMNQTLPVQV
Method in brief: as §1

ERK5/MAPK7 = target: T12, ERK5/MAPK7 (Homo sapiens, UniProt Q13164); conditions: 500 nM; relative to DMSO; read-out: Residual enzymatic activity
T12 construct: purchased Reaction Biology Corporation
T12 sequence (Q13164 whole entry): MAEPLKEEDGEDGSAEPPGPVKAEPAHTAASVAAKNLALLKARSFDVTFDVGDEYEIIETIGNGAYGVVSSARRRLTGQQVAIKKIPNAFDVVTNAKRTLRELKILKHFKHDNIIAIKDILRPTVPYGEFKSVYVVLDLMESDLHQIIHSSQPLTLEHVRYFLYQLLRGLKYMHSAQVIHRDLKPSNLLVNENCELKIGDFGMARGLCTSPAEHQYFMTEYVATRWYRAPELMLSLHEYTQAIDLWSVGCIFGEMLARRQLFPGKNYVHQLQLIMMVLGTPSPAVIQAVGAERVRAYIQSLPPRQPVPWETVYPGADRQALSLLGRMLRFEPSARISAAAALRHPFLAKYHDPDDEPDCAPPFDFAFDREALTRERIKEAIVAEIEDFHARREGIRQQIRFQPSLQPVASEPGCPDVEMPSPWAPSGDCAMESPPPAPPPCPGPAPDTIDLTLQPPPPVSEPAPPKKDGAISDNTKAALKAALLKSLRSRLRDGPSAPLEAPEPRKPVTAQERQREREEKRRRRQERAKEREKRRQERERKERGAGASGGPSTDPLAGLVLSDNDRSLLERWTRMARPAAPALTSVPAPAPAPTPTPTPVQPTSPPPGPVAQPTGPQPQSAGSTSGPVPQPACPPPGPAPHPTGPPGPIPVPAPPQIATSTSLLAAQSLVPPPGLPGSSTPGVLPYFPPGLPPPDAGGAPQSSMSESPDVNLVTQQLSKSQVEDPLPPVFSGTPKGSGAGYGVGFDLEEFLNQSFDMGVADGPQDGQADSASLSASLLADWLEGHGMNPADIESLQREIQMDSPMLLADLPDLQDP
Method in brief: as §1

IRAK4 = target: T13, IRAK4 (Homo sapiens, UniProt Q9NWZ3); conditions: 500 nM; relative to DMSO; read-out: Residual enzymatic activity
T13 construct: purchased Reaction Biology Corporation
Method in brief: as §1

IRR/INSRR = target: T14, IRR/INSRR (Homo sapiens, UniProt P14616); conditions: 500 nM; relative to DMSO; read-out: Residual enzymatic activity
T14 construct: purchased Reaction Biology Corporation
Method in brief: as §1

LKB1 = target: T15, LKB1 (Homo sapiens, UniProt Q15831); conditions: 500 nM; relative to DMSO; read-out: Residual enzymatic activity
T15 construct: purchased Reaction Biology Corporation
Method in brief: as §1

MAPKAPK5/PRAK = target: T16, MAPKAPK5/PRAK (Homo sapiens, UniProt Q8IW41); conditions: 500 nM; relative to DMSO; read-out: Residual enzymatic activity
T16 construct: purchased Reaction Biology Corporation
Method in brief: as §1

MINK/MINK1 = target: T17, MINK/MINK1 (Homo sapiens, UniProt Q8N4C8); conditions: 500 nM; relative to DMSO; read-out: Residual enzymatic activity
T17 construct: purchased Reaction Biology Corporation
T17 sequence (Q8N4C8 whole entry): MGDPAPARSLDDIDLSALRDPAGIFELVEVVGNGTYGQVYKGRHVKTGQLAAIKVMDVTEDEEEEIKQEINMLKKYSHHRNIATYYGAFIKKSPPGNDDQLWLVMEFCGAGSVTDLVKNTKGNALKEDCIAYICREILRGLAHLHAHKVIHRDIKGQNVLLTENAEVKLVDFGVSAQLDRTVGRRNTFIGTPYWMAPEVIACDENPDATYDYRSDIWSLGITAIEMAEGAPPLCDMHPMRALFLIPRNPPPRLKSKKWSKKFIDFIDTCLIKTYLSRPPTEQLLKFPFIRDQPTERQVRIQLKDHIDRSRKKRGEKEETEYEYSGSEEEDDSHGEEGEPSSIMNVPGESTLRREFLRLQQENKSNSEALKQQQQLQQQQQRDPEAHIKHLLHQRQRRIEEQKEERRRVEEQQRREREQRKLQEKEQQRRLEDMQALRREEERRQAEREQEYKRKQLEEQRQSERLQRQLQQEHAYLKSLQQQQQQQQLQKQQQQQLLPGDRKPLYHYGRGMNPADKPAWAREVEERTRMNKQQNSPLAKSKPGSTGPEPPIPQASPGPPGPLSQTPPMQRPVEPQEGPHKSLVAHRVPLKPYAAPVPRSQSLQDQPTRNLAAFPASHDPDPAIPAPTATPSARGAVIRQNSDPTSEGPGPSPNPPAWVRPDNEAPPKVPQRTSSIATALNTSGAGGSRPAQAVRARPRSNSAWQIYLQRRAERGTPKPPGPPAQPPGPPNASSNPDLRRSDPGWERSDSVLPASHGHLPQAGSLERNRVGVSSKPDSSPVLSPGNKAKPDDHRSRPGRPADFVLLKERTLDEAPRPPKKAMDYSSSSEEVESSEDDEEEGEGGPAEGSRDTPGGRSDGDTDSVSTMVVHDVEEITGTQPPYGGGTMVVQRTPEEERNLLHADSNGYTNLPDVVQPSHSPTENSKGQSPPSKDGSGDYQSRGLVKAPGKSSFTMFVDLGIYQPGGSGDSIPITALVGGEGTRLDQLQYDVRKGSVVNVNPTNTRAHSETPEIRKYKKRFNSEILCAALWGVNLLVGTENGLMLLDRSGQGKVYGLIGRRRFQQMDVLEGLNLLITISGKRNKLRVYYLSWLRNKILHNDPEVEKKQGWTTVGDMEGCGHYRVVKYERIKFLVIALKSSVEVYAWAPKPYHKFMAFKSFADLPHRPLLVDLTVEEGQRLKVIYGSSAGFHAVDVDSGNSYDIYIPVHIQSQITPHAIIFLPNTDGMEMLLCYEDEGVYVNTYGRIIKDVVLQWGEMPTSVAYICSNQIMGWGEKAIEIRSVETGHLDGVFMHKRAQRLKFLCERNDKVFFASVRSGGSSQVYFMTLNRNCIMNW
Method in brief: as §1

MKK6 = target: T18, MKK6 (Homo sapiens, UniProt P52564); conditions: 500 nM; relative to DMSO; read-out: Residual enzymatic activity
T18 construct: purchased Reaction Biology Corporation
Method in brief: as §1

MYLK3 = target: T19, MYLK3 (Homo sapiens, UniProt Q32MK0); conditions: 500 nM; relative to DMSO; read-out: Residual enzymatic activity
T19 construct: purchased Reaction Biology Corporation
Method in brief: as §1

PHKg1 = target: T20, PHKg1 (Homo sapiens, UniProt Q16816); conditions: 500 nM; relative to DMSO; read-out: Residual enzymatic activity
T20 construct: purchased Reaction Biology Corporation
Method in brief: as §1

PIM1 = target: T21, PIM1 (Homo sapiens, UniProt P11309); conditions: 500 nM; relative to DMSO; read-out: Residual enzymatic activity
T21 construct: purchased Reaction Biology Corporation
Method in brief: as §1

PKCb2 = target: T22, PKCb2 (Homo sapiens, UniProt P05771); conditions: 500 nM; relative to DMSO; read-out: Residual enzymatic activity
T22 construct: purchased Reaction Biology Corporation
T22 sequence (P05771 1-673 isoform P05771-2): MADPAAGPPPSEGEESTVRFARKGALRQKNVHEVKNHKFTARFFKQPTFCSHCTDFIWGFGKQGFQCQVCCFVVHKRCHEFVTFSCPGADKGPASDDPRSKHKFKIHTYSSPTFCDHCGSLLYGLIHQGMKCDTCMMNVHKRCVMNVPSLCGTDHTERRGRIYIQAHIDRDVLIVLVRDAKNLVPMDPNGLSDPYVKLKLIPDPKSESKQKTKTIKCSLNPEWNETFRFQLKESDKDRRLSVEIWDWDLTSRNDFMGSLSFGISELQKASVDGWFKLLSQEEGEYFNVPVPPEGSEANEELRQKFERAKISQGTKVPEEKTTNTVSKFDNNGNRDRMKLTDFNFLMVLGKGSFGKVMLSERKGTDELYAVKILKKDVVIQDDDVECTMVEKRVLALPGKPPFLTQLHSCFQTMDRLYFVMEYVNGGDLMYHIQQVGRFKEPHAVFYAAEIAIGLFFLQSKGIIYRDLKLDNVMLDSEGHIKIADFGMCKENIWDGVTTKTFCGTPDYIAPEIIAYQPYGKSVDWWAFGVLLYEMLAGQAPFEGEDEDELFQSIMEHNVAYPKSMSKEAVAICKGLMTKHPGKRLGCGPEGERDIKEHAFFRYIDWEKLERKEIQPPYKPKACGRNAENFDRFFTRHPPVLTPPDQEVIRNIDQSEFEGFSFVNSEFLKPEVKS
Method in brief: as §1

PKCd = target: T23, PKCd (Homo sapiens, UniProt Q05655); conditions: 500 nM; relative to DMSO; read-out: Residual enzymatic activity
T23 construct: purchased Reaction Biology Corporation
Method in brief: as §1

PKCnu/PRKD3 = target: T24, PKCnu/PRKD3 (Homo sapiens, UniProt O94806); conditions: 500 nM; relative to DMSO; read-out: Residual enzymatic activity
T24 construct: purchased Reaction Biology Corporation
Method in brief: as §1

ROCK2 = target: T25, ROCK2 (Homo sapiens, UniProt O75116); conditions: 500 nM; relative to DMSO; read-out: Residual enzymatic activity
T25 construct: purchased Reaction Biology Corporation
Method in brief: as §1

SGK2 = target: T26, SGK2 (Homo sapiens, UniProt Q9HBY8); conditions: 500 nM; relative to DMSO; read-out: Residual enzymatic activity
T26 construct: purchased Reaction Biology Corporation
Method in brief: as §1

STK32C/YANK3 = target: T27, STK32C/YANK3 (Homo sapiens, UniProt Q86UX6); conditions: 500 nM; relative to DMSO; read-out: Residual enzymatic activity
T27 construct: purchased Reaction Biology Corporation
Method in brief: as §1

STK39/STLK3 = target: T28, STK39/STLK3 (Homo sapiens, UniProt Q9UEW8); conditions: 500 nM; relative to DMSO; read-out: Residual enzymatic activity
T28 construct: purchased Reaction Biology Corporation
Method in brief: as §1

Compound | remaining activity at 0.5 µM (AKT1) | remaining activity at 0.5 µM (AKT2) | remaining activity at 0.5 µM (AKT3) | remaining activity at 0.5 µM (ALK2/ACVR1) | remaining activity at 0.5 µM (BRAF) | remaining activity at 0.5 µM (CAMK4) | remaining activity at 0.5 µM (CDK1/cyclin A) | remaining activity at 0.5 µM (COT1/MAP3K8) | remaining activity at 0.5 µM (CTK/MATK) | remaining activity at 0.5 µM (EPHA1) | remaining activity at 0.5 µM (ERK5/MAPK7) | remaining activity at 0.5 µM (IRAK4) | remaining activity at 0.5 µM (IRR/INSRR) | remaining activity at 0.5 µM (LKB1) | remaining activity at 0.5 µM (MAPKAPK5/PRAK) | remaining activity at 0.5 µM (MINK/MINK1) | remaining activity at 0.5 µM (MKK6) | remaining activity at 0.5 µM (MYLK3) | remaining activity at 0.5 µM (PHKg1) | remaining activity at 0.5 µM (PIM1) | further results
COc1cc(Nc2ncc(F)c(Nc3ccc4c(n3)NC(=O)C(C)(C)O4)n2)cc(OC)c1OC [R406, reference compound] | 99.4% | 110% | 95.2% | 135% | 95.9% | 120% | 74.2% | 100% | 120% | 25.4% | 88.2% | 41.9% | 73.6% | 69.3% | 99.4% | 87.3% | 112% | 96.4% | 61.5% | 99.2% | remaining activity at 0.5 µM (EPHB3; read-out: Residual enzymatic activity): 84.4%; remaining activity at 0.5 µM (PKCb2): 30.7%; remaining activity at 0.5 µM (PKCd): 97.7%; remaining activity at 0.5 µM (PKCnu/PRKD3): 72.8%; remaining activity at 0.5 µM (ROCK2): 77.6%; remaining activity at 0.5 µM (SGK2): 106%; remaining activity at 0.5 µM (STK32C/YANK3): 102%; remaining activity at 0.5 µM (STK39/STLK3): 107%
COc1cc(Nc2ncnc(Nc3cc4c(cn3)NC(=O)C(C)(C)O4)n2)cc(OC)c1OC [MT-SYK-03] | 101% | 106% | 103% | 241% | 86.7% | 111% | 110% | 90.4% | 96.6% | 48.3% | 92.2% | 103% | 89% | 101% | 92.3% | 92% | 116% | 95.9% | 97.1% | 101% | IC50 (EPHA1; 10-dose mode, threefold serial dilution from 10 μM): 457 nM; Residual enzymatic activity (EPHB3): 94.2%; remaining activity at 0.5 µM (PKCb2): 87.7%; remaining activity at 0.5 µM (PKCd): 110%; remaining activity at 0.5 µM (PKCnu/PRKD3): 99.9%; remaining activity at 0.5 µM (ROCK2): 91.1%; remaining activity at 0.5 µM (SGK2): 110%; remaining activity at 0.5 µM (STK32C/YANK3): 115%; remaining activity at 0.5 µM (STK39/STLK3): 107%
